Measurements: US5610171A, “Inhibition of metastasis in patients having cancer with pyridyloxazole-2-ones” (Merrell Pharmaceuticals Inc., priority 1995, dated 1997)
“Also recorded” adds a separate entry of the source. Where two headings read alike, the source gives them in different places.

What was measured:
B16F1 cells [1] = test: Colony forming (clonogenic) assay of B16F1 cells; type: cell-based, murine; conditions: 24 hours
Experimental: One hundred viable cells, as determined by trypan blue exclusion, were plated per 35 mm dish in MEM and incubated for 24 hours at 37° C. Next, 4-propyl-5(4-pyridinyl)-2(3H)-oxazolone was added and incubation continued for an additional 24 hours, after which the dishes were washed twice with Hank's Balanced Salt Solution (HBSS) and replenished with MEM. Ten days later, colonies with a diameter of 2 mm or greater were counted.
B16F1 cells (10^2) were plated and incubated for 24
hours at 37° C. Next, 4-propyl-5(4-pyridinyl)-2(3H)-
oxazolone (compound 1) was added and incubation continued
for an additional 24 hours at which time the drug was
removed. Ten days later, colonies greater than 2 mm in […]

B16F1 cells [2] = test: Experimental lung metastasis assay (B16F1 cells treated in culture, then injected intravenously into C57BL/6 mice); type: in vivo, murine (C57BL/6 mice); conditions: for % Control (number of nodules) / Number of nodules per set of lungs, Mean +/- SE: 24 hours; for IC50: cells exposed to drugs for 24 hours, nodules counted three weeks later, read-out: B16 Metastasis IC50
Experimental: Experimental Metastasis Assay
Sub-confluent B16F1 cells were harvested by washing with HBSS followed by trypsinization for 1 minute. The cells were sedimented by centrifugation (250 g, 5 minutes) and washed twice with HBSS. Viable cells were counted after dilution with trypan blue. A single-cell suspension of 10^5 cells in 0.2 ml HBSS was injected intravenously into 16-18 C57BL/6 mice via the tail vein. Three weeks later, the number of metastatic foci in the lung were counted.

membrane-associated PKC = test: Inhibition of B16F1 membrane-associated PKC activity; type: biochemical, murine; conditions: B16F1 membrane fraction
Experimental: Protein Kinase C Preparation
Cytostolic and membrane-associated PKC was prepared as described in Thomas, T. P., Gopalakrishna, R. and Anderson, W. B. Hormone- and tumor promoter-induced activation of membrane association of protein kinase C in intact cells, Methodsin Enzymology, 141: 399-411, 1987. Sub-confluent B16F1 cultures (4×10^7 cells total) were washed twice with phosphate buffered saline (PBS), pH 7.2 and then twice with buffer A (20 mM Tris, pH 7.5, 2 mM EDTA, 0.5 mM EGTA, […], 2 mM phenylmethylsulfonyl fluoride (PMSF), and 2 μg/ml leupeptin). Cells were scraped from the plates in buffer A, homogenized (40 strokes) and sedimented by centrifugation for 1 hour at 100,000 g. The cytosol was stored on ice while the particulate fraction was washed with buffer B (20 mM Tris, pH 7.2, 2 mM EDTA, 0.5 mM EGTA, and 2 mM (PMSF). The membranes were resuspended with buffer B and homogenized with 10 strokes. Nonidet P-40 (1% final concentration) was added and the mixture was incubated for 30 minutes at 4° C. in a rotating mixer. Nonsolubilized material was removed by centrifugation for 10 minutes at 1400 g. Cytostolic and membrane-bound PKC was partially purified by chromatography over 1 ml columns of DE-52 (Whatman) equilibrated with buffer B. The enzyme was applied to the column and washed with 2×3 ml buffer B. Elution of PKC was then effected by the addition of 2 ml buffer B containing 100 mM NaCl.
PKC was quantitated as described in Thomas et al., ibid. The assay contained 20 mM Tris (pH 7.5), 0.75 mM CaCl, 10 mM magnesium acetate, […] histone III-S, 0.25 μg/ml leupeptin, 100 μM [gamma-^32 p]-ATP (120 cpm/pmol), 0.96 μg/ml phosphatidylserine, and 0.0064 μg/ml 1,2-diolein in a total assay volume of 250 μl. Blanks contained no calcium or phospholipids. Incubation was for 5 minutes at 30° C. at which point the reaction was terminated by the addition of 1 ml 25% trichloroacetic acid (TCA). Samples were applied to Whatman GF/B filters, the tube rinsed twice with 5% TCA and the filter then washed 5 times with 5% TCA.

collagen IV = test: Adhesion of B16F1 cells to collagen IV; type: cell-based; conditions: 24 hours
Experimental: (§1) Adhesion of B16F1 Cells to Basement Membrane Proteins
(§2) Adhesion proteins (2 μg/well) were coated onto Immulon I Removawells from Dynatech and incubated for 1 hour at 37° C. The wells were then blocked for 1 hour with 400 μl PBS, pH 7.2 containing 1% bovine serum albumin (BSA) at 37° C. Prior to addition of the cell suspension, the blocking solution was aspirated.
(§3) Sub-confluent cells were washed twice with HBSS and removed form flasks by incubation for 10 minutes at 37° C. with PBS (pH 7.2), 2 mM EDTA, and 1% BSA. The cells were washed twice with MEM containing 20 mM HEPES and 0.1% BSA and resuspended in the same medium to give a cell density of […].
(§4) Cells were added to wells in 50 μl (5×10^4 cells) and incubated at 37° C. The wells were aspirated and washed three times with 400 μl PBS (pH 7.2) containing 0.1% BSA. Wells were detached and counted in 5 ml Beckman Ready Protein. Blanks were not coated with protein but were blocked with BSA as described above.

fibronection = test: Adhesion of B16F1 cells to fibronectin; type: cell-based; conditions: 24 hours
Experimental: as §1, §2, §3, §4

[3] = tested on: extracellular matrix/basement membrane proteins; test: Adhesion of B16F1 cells to extracellular matrix/basement membrane proteins; type: cell-based, murine
Experimental: as §1, §2, §3, §4

[4] = tested on: B16F1 murine melanoma cells; test: Viability of treated B16F1 cells by [3H]-thymidine incorporation; type: cell-based; conditions: 24 hours

In the case of CCCc1[nH]c(=O)oc1-c1ccncc1 [Compound 1, 4-propyl-5(4-pyridinyl)-2(3H)-oxazolone], the “Colonies per dish, Mean +/- SE” value (B16F1 cells [1]; 10 μM) is reported as 27 +/- 2 colonies per dish, the “Colonies per dish, Mean +/- SE” value (B16F1 cells [1]; 20 μM) is reported as 34 +/- 1 colonies per dish and the “Colonies per dish, Mean +/- SE” value (B16F1 cells [1]; 50 μM) is reported as 29 +/- 1 colonies per dish. The “viability of treated cells (clonogenic assay)” value (B16F1 cells [1]) was “equivalent to untreated cells”, the “% Control (number of nodules)” value (B16F1 cells [2]; 1 μM) was 67% and the “Number of nodules per set of lungs, Mean +/- SE” value (B16F1 cells [2]; 1 μM) was 12 +/- 2.8 nodules per set of lungs. The “% Control (number of nodules)” value (B16F1 cells [2]; 5 μM) was 78%, the “Number of nodules per set of lungs, Mean +/- SE” value (B16F1 cells [2]; 5 μM) was 14 +/- 3.3 nodules per set of lungs and the “% Control (number of nodules)” value (B16F1 cells [2]; 10 μM) was 43%. The “Number of nodules per set of lungs, Mean +/- SE” value (B16F1 cells [2]; 10 μM) was 7.8 +/- 2.1 nodules per set of lungs, the “% Control (number of nodules)” value (B16F1 cells [2]; 20 μM) was 30% and the “Number of nodules per set of lungs, Mean +/- SE” value (B16F1 cells [2]; 20 μM) was 5.4 +/- 1.1 nodules per set of lungs. The “% Control (number of nodules)” value (B16F1 cells [2]; 50 μM) was 12%, the “Number of nodules per set of lungs, Mean +/- SE” value (B16F1 cells [2]; 50 μM) was 2 +/- 0.6 nodules per set of lungs and the “inhibition of lung metastasis” value (B16F1 cells [2]; 24 hours in culture, then intravenous injection into C57BL/6 mice) was 90%. The IC50 (B16F1 cells [2]; Mus musculus, B16-F1, iv) was 6.8 µM, the “number of lung metastases” value (B16F1 cells [2]; cells exposed in vitro, then injected into mice) was “diminished the number of lung metastases” and the IC50 (B16F1 cells [2]) was 7 µM. The “incubation time for 50% of maximum inhibition of metastasis” value (B16F1 cells [2]; time dependence of incubation) was at most 8 h, the “potency for inhibition of metastasis relative to H-7” value (B16F1 cells [2]; versus H-7) was “more potent than H-7” and the “potency for inhibition of metastasis relative to staurosporine” value (B16F1 cells [2]; versus staurosporine) was “significantly less potent than staurosporine”. The IC50 (membrane-associated PKC) was 13 µM, the “adhesion to collagen IV” value (collagen IV) was “most sensitive to inhibition” and the adherence to fibronection (fibronection) was “inhibited minimally or not at all”. For the same molecule, the “attachment to extracellular matrix/basement membrane proteins” value ([3]; 24 hours) was “decreased adhesion to some basement membrane proteins; also recorded: less adherent than untreated cells”, the “potency for inhibition of adhesion relative to H-7” value ([3]; versus H-7) was “more potent than H-7” and the “potency for inhibition of adhesion relative to staurosporine” value ([3]; versus staurosporine) was “significantly less potent than staurosporine”. The “viability of treated cells ([3H]-thymidine incorporation)” value [4] was “equivalent to untreated cells”.
